Assay results reported in patent publication US9808003B2, “Herbicidally active 2-(substituted-phenyl)-cyclopentane-1,3-dione compounds and derivatives thereof” (Syngenta Limited, priority 2013, dated 2017).

Legend:
Assay type in all cases: in vivo
[1] = system: Winter Wheat “Hereward”; assay: Test 1B glasshouse assay, post-emergence herbicidal activity against cereal crops
Description: (§1) Biological Example 1B tests the herbicidal activity of“technical” compounds (i.e. compounds not previously formulated before the test), as the herbicides under test.
(§2) An “instant formulation”, known as the “IF50”, containing 50 g/liter (i.e. 5% w/v) of the “technical” (i.e. unformulated) active ingredient (i.e. the herbicide under test), is prepared by dissolving the active ingredient in a mixture of organic solvents and emulsifier, details of which are provided in the Table below.
(§3) This IF50 is mixed with a small, variable amount of acetone to aid dissolution, before addition of a 0.5% v/v aqueous solution of the adjuvant Adigor™ (an adjuvant containing rapeseed oil methyl ester, ethoxylated alcohols, and a mixture of heavy aromatic hydrocarbons, e.g. available from Syngenta), as the aqueous diluent, to form an aqueous spray solution which contains a predetermined concentration of the active ingredient (which varies depending on the application rate of the active ingredient to the plants) and 0.5% v/v of the adjuvant Adigor™. This aqueous spray solution is suitable for spraying onto plants.
(§4) Seeds of a variety of test species are sown in standard soil in pots. After cultivation for 14 days under controlled conditions in a glasshouse (at 22/16° C., day/night; 16 hours light; 65% humidity), the plants are sprayed post-emergence with the above-mentioned aqueous spray solution containing inter alia the “technical” active ingredient (i.e. the herbicide under test) and the adjuvant Adigor™.
(§5) The test plants are then grown on under controlled conditions in the glasshouse (at 22/16° C., day/night; 16 hours light; 65% humidity) and are watered twice daily. 14 days after application of the test herbicide, the test is evaluated visually for percentage phytotoxicity to the plant (where 100%=total damage to plant; 0%=no damage to plant).
(§6) More specifically, post-emergence herbicidal activity (phytotoxicity) data, on certain tested grassy monocotyledonous weeds (and/or plants of the type Gramineae) and cereal crops in the glasshouse, are measured 14 days after application of the herbicide (14 DAA), typically for inter alia one or more of the following application rates: • (a) a post-emergence application rate of 60 g/ha of the test herbicide with or without 50 g/ha of cloquintocet-mexyl safener, and • (b) a post-emergence application rate of 90 g/ha of the test herbicide with 50 g/ha of cloquintocet-mexyl safener, and • (c) a post-emergence application rate of 120 g/ha of the test herbicide with 50 g/ha of cloquintocet-mexyl safener.
(§7) The cloquintocet-mexyl, when used, is present in the formulation containing the herbicide under test dissolved in acetone plus IF50.
(§8) The range of herbicide application rates tested sometimes includes application rates other than those shown above, and the rates can vary depending on the herbicide under test.
(§9) Herbicidal activity (phytotoxicity) is evaluated visually, and an assessed percentage phytotoxicity score is given for each herbicidal application on each plant species (with 100%=total damage to plant; 0%=no damage to plant; the assessment is recorded in increments of 1%). Two replicates are made for each experiment, and the mean herbicidal activity (phytotoxicity) data is reported.

[2] = system: Spring Barley “Harrington”; assay: as above
Description: as §1, §2, §3, §4, §5, §6, §7, §8, §9

[3] = system: Winter Barley “Suzuka”; assay: as above
Description: as §1, §2, §3, §4, §5, §6, §7, §8, §9

[4] = system: Alopecurus myosuroides (ALOMY); assay: Test 1B glasshouse assay, post-emergence herbicidal activity against grassy weeds; conditions: 14 DAA
Description: as §1, §2, §3, §4, §5, §6, §7, §8, §9
(§10) For compounds A34, A98, A99, A87, A100, A101, A89, A120, A120A, A120B, A23, A127, A128, A89, A112 and A113 the tested weeds were as follows: Avena fatua (AVEFA), Lolium multiflorum (LOLMU), Setaria viridis (SETVI), Poa annua (POAAN), Alopecurus myosuroides (ALOMY). All five of these are grassy monocotyledonous weeds. Except for SETVI, these are all “cool-season” grassy monocotyledonous weeds.

[5] = system: Lolium multiflorum (LOLMU); assay: as above; conditions: 14 DAA
Description: as §1, §2, §3, §4, §5, §6, §7, §8, §9, §10

[6] = system: Poa annua (POAAN); assay: as above; conditions: 14 DAA
Description: as §1, §2, §3, §4, §5, §6, §7, §8, §9, §10

[7] = system: Avena fatua (AVEFA); assay: as above; conditions: 14 DAA
Description: as §1, §2, §3, §4, §5, §6, §7, §8, §9, §10

[8] = system: Setaria viridis (SETVI); assay: as above; conditions: 14 DAA
Description: as §1, §2, §3, §4, §5, §6, §7, §8, §9, §10

[9] = herbicide 30 g/ha, cloquintocet-mexyl 50 g/ha
[10] = herbicide 45 g/ha, cloquintocet-mexyl 50 g/ha
[11] = herbicide 60 g/ha, cloquintocet-mexyl 0 g/ha
[12] = herbicide 60 g/ha, cloquintocet-mexyl 50 g/ha
[13] = 30 g/ha herbicide, 50 g/ha cloquintocet-mexyl
[14] = 45 g/ha herbicide, 50 g/ha cloquintocet-mexyl
[15] = 60 g/ha herbicide, 0 g/ha cloquintocet-mexyl
[16] = 60 g/ha herbicide, 50 g/ha cloquintocet-mexyl

SMILES	Percentage Phytotoxicity Winter Wheat “Hereward” [1, 9]	Percentage Phytotoxicity Winter Wheat “Hereward” [1, 10]	Percentage Phytotoxicity Winter Wheat “Hereward” [1, 11]	Percentage Phytotoxicity Winter Wheat “Hereward” [1, 12]	Percentage Phytotoxicity Spring Barley “Harrington” [2, 9]	Percentage Phytotoxicity Spring Barley “Harrington” [2, 10]	Percentage Phytotoxicity Spring Barley “Harrington” [2, 11]	Percentage Phytotoxicity Spring Barley “Harrington” [2, 12]	Percentage Phytotoxicity Winter Barley “Suzuka” [3, 9]	Percentage Phytotoxicity Winter Barley “Suzuka” [3, 10]	Percentage Phytotoxicity Winter Barley “Suzuka” [3, 11]	Percentage Phytotoxicity Winter Barley “Suzuka” [3, 12]	Post-emergence herbicidal activity, percentage phytotoxicity, ALOMY [4, 13]	Post-emergence herbicidal activity, percentage phytotoxicity, ALOMY [4, 14]	Post-emergence herbicidal activity, percentage phytotoxicity, ALOMY [4, 15]	Post-emergence herbicidal activity, percentage phytotoxicity, ALOMY [4, 16]	Post-emergence herbicidal activity, percentage phytotoxicity, LOLMU [5, 13]	Post-emergence herbicidal activity, percentage phytotoxicity, LOLMU [5, 14]	Post-emergence herbicidal activity, percentage phytotoxicity, LOLMU [5, 15]	Post-emergence herbicidal activity, percentage phytotoxicity, LOLMU [5, 16]	other results
Cc1cc(C)c(C2C(=O)C[C@@H](CCNC(=O)c3ccc(Br)cn3)C2=O)c(C)c1 (stereo partly shown) [Compound A120A]	53%	60%	73%	65%	30%	60%	85%	73%	23%	75%	93%	83%	80%	88%	95%	90%	97%	100%	100%	100%	Post-emergence herbicidal activity, percentage phytotoxicity, POAAN [6, 13]: 3%; Post-emergence herbicidal activity, percentage phytotoxicity, POAAN [6, 14]: 5%; Post-emergence herbicidal activity, percentage phytotoxicity, POAAN [6, 15]: 30%; Post-emergence herbicidal activity, percentage phytotoxicity, POAAN [6, 16]: 10%; Post-emergence herbicidal activity, percentage phytotoxicity, AVEFA [7, 13]: 90%; Post-emergence herbicidal activity, percentage phytotoxicity, AVEFA [7, 14]: 95%; Post-emergence herbicidal activity, percentage phytotoxicity, AVEFA [7, 15]: 97%; Post-emergence herbicidal activity, percentage phytotoxicity, AVEFA [7, 16]: 97%; Post-emergence herbicidal activity, percentage phytotoxicity, SETVI [8, 13]: 100%; Post-emergence herbicidal activity, percentage phytotoxicity, SETVI [8, 14]: 100%; Post-emergence herbicidal activity, percentage phytotoxicity, SETVI [8, 15]: 100%; Post-emergence herbicidal activity, percentage phytotoxicity, SETVI [8, 16]: 100%
Cc1cc(C)c(C2C(=O)C[C@H](CCNC(=O)c3ccc(Br)cn3)C2=O)c(C)c1 (stereo partly shown) [Compound A120B]	7%	10%	58%	13%	3%	10%	53%	23%	3%	9%	75%	13%	43%	58%	73%	70%	58%	73%	83%	73%	Post-emergence herbicidal activity, percentage phytotoxicity, POAAN [6, 13]: 0%; Post-emergence herbicidal activity, percentage phytotoxicity, POAAN [6, 14]: 0%; Post-emergence herbicidal activity, percentage phytotoxicity, POAAN [6, 15]: 4%; Post-emergence herbicidal activity, percentage phytotoxicity, POAAN [6, 16]: 4%; Post-emergence herbicidal activity, percentage phytotoxicity, AVEFA [7, 13]: 3%; Post-emergence herbicidal activity, percentage phytotoxicity, AVEFA [7, 14]: 10%; Post-emergence herbicidal activity, percentage phytotoxicity, AVEFA [7, 15]: 38%; Post-emergence herbicidal activity, percentage phytotoxicity, AVEFA [7, 16]: 48%; Post-emergence herbicidal activity, percentage phytotoxicity, SETVI [8, 13]: 40%; Post-emergence herbicidal activity, percentage phytotoxicity, SETVI [8, 14]: 65%; Post-emergence herbicidal activity, percentage phytotoxicity, SETVI [8, 15]: 68%; Post-emergence herbicidal activity, percentage phytotoxicity, SETVI [8, 16]: 68%
